In patent US10695337B2, “Piperidin-4-yl azetidine derivatives as JAK1 inhibitors” (Incyte Corporation, priority 2010, dated 2020):

Biological target: human JAK1 (a.a. 837-1142)
Test: In vitro JAK kinase assay (HTRF, phosphorylation of a biotinylated peptide), JAK1
Assay type: biochemical
Conditions: measured at 1 mM ATP; JAK2 IC50 / JAK1 IC50
Summary of the method: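 N-terminal His-tagged catalytic domains, baculovirus-expressed in insect cells, phosphorylated a biotinylated peptide for 1 hr at room temperature. EDTA stop was followed by SA-APC and Eu-Py20 antibody for 40 minutes, with phosphopeptide read by HTRF.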

IC50 Ratio JAK2/JAK1	Compound
8.5	N#CCC1(n2cc(-c3ncnc4[nH]ccc34)cn2)CN(C2CCN(C(=O)Nc3cccc(Cl)c3F)CC2)C1 [Example 177, N-(3-chloro-2-fluorophenyl)-4-{3-(cyanomethyl)-3-[4-(7H-pyrrolo[2,3-d]pyrimidin-4-yl)-1H-pyrazol-1-yl]azetidin-1-yl}piperidine-1-carboxamide]
6.5	N#CCC1(n2cc(-c3ncnc4[nH]ccc34)cn2)CN(C2CCN(C(=O)Nc3ccc(Cl)cc3F)CC2)C1 [Example 178, N-(4-chloro-2-fluorophenyl)-4-{3-(cyanomethyl)-3-[4-(7H-pyrrolo[2,3-d]pyrimidin-4-yl)-1H-pyrazol-1-yl]azetidin-1-yl}piperidine-1-carboxamide]
3.8	N#CCC1(n2cc(-c3ncnc4[nH]ccc34)cn2)CN(C2CCN(C(=O)Nc3ccsc3)CC2)C1 [Example 179, 4-{3-(cyanomethyl)-3-[4-(7H-pyrrolo[2,3-d]pyrimidin-4-yl)-1H-pyrazol-1-yl]azetidin-1-yl}-N-3-thienylpiperidine-1-carboxamide]
4.0	COc1ccccc1NC(=O)N1CCC(N2CC(CC#N)(n3cc(-c4ncnc5[nH]ccc45)cn3)C2)CC1 [Example 180, 4-{3-(cyanomethyl)-3-[4-(7H-pyrrolo[2,3-d]pyrimidin-4-yl)-1H-pyrazol-1-yl]azetidin-1-yl}-N-(2-methoxyphenyl)piperidine-1-carboxamide]
4.9	COc1cccc(NC(=O)N2CCC(N3CC(CC#N)(n4cc(-c5ncnc6[nH]ccc56)cn4)C3)CC2)c1 [Example 181, 4-{3-(cyanomethyl)-3-[4-(7H-pyrrolo[2,3-d]pyrimidin-4-yl)-1H-pyrazol-1-yl]azetidin-1-yl}-N-(3-methoxyphenyl)piperidine-1-carboxamide]
3.7	N#CCC1(n2cc(-c3ncnc4[nH]ccc34)cn2)CN(C2CCN(C(=O)Nc3ccc(OC(F)(F)F)cc3)CC2)C1 [Example 182, 4-{3-(cyanomethyl)-3-[4-(7H-pyrrolo[2,3-d]pyrimidin-4-yl)-1H-pyrazol-1-yl]azetidin-1-yl}-N-[4-(trifluoromethoxy)phenyl]piperidine-1-carboxamide]
3.8	N#CCC1(n2cc(-c3ncnc4[nH]ccc34)cn2)CN(C2CCN(C(=O)Nc3cccc(Cl)c3)CC2)C1 [Example 183, N-(3-chlorophenyl)-4-{3-(cyanomethyl)-3-[4-(7H-pyrrolo[2,3-d]pyrimidin-4-yl)-1H-pyrazol-1-yl]azetidin-1-yl}piperidine-1-carboxamide]
3.9	N#CCC1(n2cc(-c3ncnc4[nH]ccc34)cn2)CN(C2CCN(C(=O)Nc3ccc(Cl)cc3)CC2)C1 [Example 184, N-(4-chlorophenyl)-4-{3-(cyanomethyl)-3-[4-(7H-pyrrolo[2,3-d]pyrimidin-4-yl)-1H-pyrazol-1-yl]azetidin-1-yl}piperidine-1-carboxamide]
9.5	Cc1ccccc1NC(=O)N1CCC(N2CC(CC#N)(n3cc(-c4ncnc5[nH]ccc45)cn3)C2)CC1 [Example 185, 4-{3-(cyanomethyl)-3-[4-(7H-pyrrolo[2,3-d]pyrimidin-4-yl)-1H-pyrazol-1-yl]azetidin-1-yl}-N-(2-methylphenyl) piperidine-1-carboxamide]
5.5	COc1ccc(OC)c(NC(=O)N2CCC(N3CC(CC#N)(n4cc(-c5ncnc6[nH]ccc56)cn4)C3)CC2)c1 [Example 186, 4-{3-(cyanomethyl)-3-[4-(7H-pyrrolo[2,3-d]pyrimidin-4-yl)-1H-pyrazol-1-yl]azetidin-1-yl}-N-(2,5-dimethoxyphenyl)piperidine-1-carboxamide]
3.5	Cc1ccc(NC(=O)N2CCC(N3CC(CC#N)(n4cc(-c5ncnc6[nH]ccc56)cn4)C3)CC2)c(C)n1 [Example 189, 4-{3-(cyanomethyl)-3-[4-(7H-pyrrolo[2,3-d]pyrimidin-4-yl)-1H-pyrazol-1-yl]azetidin-1-yl}-N-(2,6-dimethylpyridin-3-yl)piperidine-1-carboxamide]
2.1	N#CCC1(n2cc(-c3ncnc4[nH]ccc34)cn2)CN(C2CCN(C(=O)Nc3nccs3)CC2)C1 [Example 190, 4-{3-(cyanomethyl)-3-[4-(7H-pyrrolo[2,3-d]pyrimidin-4-yl)-1H-pyrazol-1-yl]azetidin-1-yl}-N-1,3-thiazol-2-ylpiperidine-1-carboxamide]
1.4	Cc1csc(NC(=O)N2CCC(N3CC(CC#N)(n4cc(-c5ncnc6[nH]ccc56)cn4)C3)CC2)n1 [Example 191, 4-{3-(cyanomethyl)-3-[4-(7H-pyrrolo[2,3-d]pyrimidin-4-yl)-1H-pyrazol-1-yl]azetidin-1-yl}-N-(4-methyl-1,3-thiazol-2-yl)piperidine-1-carboxamide]
3.0	Cc1nc(NC(=O)N2CCC(N3CC(CC#N)(n4cc(-c5ncnc6[nH]ccc56)cn4)C3)CC2)sc1C [Example 192, 4-{3-(cyanomethyl)-3-[4-(7H-pyrrolo[2,3-d]pyrimidin-4-yl)-1H-pyrazol-1-yl]azetidin-1-yl}-N-(4,5-dimethyl-1,3-thiazol-2-yl)piperidine-1-carboxamide]
0.5	N#CCC1(n2cc(-c3ncnc4[nH]ccc34)cn2)CN(C2CCN(C(=O)Nc3nc4ccccc4s3)CC2)C1 [Example 193, N-1,3-benzothiazol-2-yl-4-{3-(cyanomethyl)-3-[4-(7H-pyrrolo[2,3-d]pyrimidin-4-yl)-1H-pyrazol-1-yl]azetidin-1-yl}piperidine-1-carboxamide]
2.2	Cn1c(NC(=O)N2CCC(N3CC(CC#N)(n4cc(-c5ncnc6[nH]ccc56)cn4)C3)CC2)nc2ccccc21 [Example 194, 4-{3-(cyanomethyl)-3-[4-(7H-pyrrolo[2,3-d]pyrimidin-4-yl)-1H-pyrazol-1-yl]azetidin-1-yl}-N-(1-methyl-1H-benzimidazol-2-yl)piperidine-1-carboxamide]
3.2	N#CCC1(n2cc(-c3ncnc4[nH]ccc34)cn2)CN(C2CCN(C(=O)Nc3nc(-c4ccc(Cl)cc4)cs3)CC2)C1 [Example 195, N-[4-(4-chlorophenyl)-1,3-thiazol-2-yl]-4-{3-(cyanomethyl)-3-[4-(7H-pyrrolo[2,3-d]pyrimidin-4-yl)-1H-pyrazol-1-yl]azetidin-1-yl}piperidine-1-carboxamide]
9.9	CCn1nccc1NC(=O)N1CCC(N2CC(CC#N)(n3cc(-c4ncnc5[nH]ccc45)cn3)C2)CC1 [Example 196, 4-{3-(cyanomethyl)-3-[4-(7H-pyrrolo[2,3-d]pyrimidin-4-yl)-1H-pyrazol-1-yl]azetidin-1-yl}-N-(1-ethyl-1H-pyrazol-5-yl)piperidine-1-carboxamide]
3.2	Cc1cc(NC(=O)N2CCC(N3CC(CC#N)(n4cc(-c5ncnc6[nH]ccc56)cn4)C3)CC2)n(C)n1 [Example 197, 4-{3-(cyanomethyl)-3-[4-(7H-pyrrolo[2,3-d]pyrimidin-4-yl)-1H-pyrazol-1-yl]azetidin-1-yl}-N-(1,3-dimethyl-1H-pyrazol-5-yl)piperidine-1-carboxamide]
4.4	Cc1ncccc1NC(=O)N1CCC(N2CC(CC#N)(n3cc(-c4ncnc5[nH]ccc45)cn3)C2)CC1 [Example 198, 4-{3-(cyanomethyl)-3-[4-(7H-pyrrolo[2,3-d]pyrimidin-4-yl)-1H-pyrazol-1-yl]azetidin-1-yl}-N-(2-methylpyridin-3-yl)piperidine-1-carboxamide]
10.0	Cc1nc(F)ccc1NC(=O)N1CCC(N2CC(CC#N)(n3cc(-c4ncnc5[nH]ccc45)cn3)C2)CC1 [Example 199, 4-{3-(cyanomethyl)-3-[4-(7H-pyrrolo[2,3-d]pyrimidin-4-yl)-1H-pyrazol-1-yl]azetidin-1-yl}-N-(6-fluoro-2-methylpyridin-3-yl)piperidine-1-carboxamide]
6.7	Cc1ccc(NC(=O)N2CCC(N3CC(CC#N)(n4cc(-c5ncnc6[nH]ccc56)cn4)C3)CC2)c(F)n1 [Example 200, 4-{3-(cyanomethyl)-3-[4-(7H-pyrrolo[2,3-d]pyrimidin-4-yl)-1H-pyrazol-1-yl]azetidin-1-yl}-N-(2-fluoro-6-methylpyridin-3-yl)piperidine-1-carboxamide]
3.6	N#CCC1(n2cc(-c3ncnc4[nH]ccc34)cn2)CN(C2CCN(C(=O)Nc3ncccc3C(F)(F)F)CC2)C1 [Example 201, 4-{3-(cyanomethyl)-3-[4-(7H-pyrrolo[2,3-d]pyrimidin-4-yl)-1H-pyrazol-1-yl]azetidin-1-yl}-N-[3-(trifluoromethyl)pyridin-2-yl]piperidine-1-carboxamide]
6.4	N#CCC1(n2cc(-c3ncnc4[nH]ccc34)cn2)CN(C2CCN(C(=O)Nc3ncccc3F)CC2)C1 [Example 202, 4-{3-(cyanomethyl)-3-[4-(7H-pyrrolo[2,3-d]pyrimidin-4-yl)-1H-pyrazol-1-yl]azetidin-1-yl}-N-(3-fluoropyridin-2-yl)piperidine-1-carboxamide]
8.6	N#CCC1(n2cc(-c3ncnc4[nH]ccc34)cn2)CN(C2CCN(C(=O)Nc3ncc(F)cc3F)CC2)C1 [Example 203, 4-{3-(cyanomethyl)-3-[4-(7H-pyrrolo[2,3-d]pyrimidin-4-yl)-1H-pyrazol-1-yl]azetidin-1-yl}-N-(3,5-difluoropyridin-2-yl)piperidine-1-carboxamide]
4.0	COc1ncccc1NC(=O)N1CCC(N2CC(CC#N)(n3cc(-c4ncnc5[nH]ccc45)cn3)C2)CC1 [Example 204, 4-{3-(cyanomethyl)-3-[4-(7H-pyrrolo[2,3-d]pyrimidin-4-yl)-1H-pyrazol-1-yl]azetidin-1-yl}-N-(2-methoxypyridin-3-yl)piperidine-1-carboxamide]

Compound	IC50 Ratio JAK2/JAK1
N#CCC1(n2cc(-c3ncnc4[nH]ccc34)cn2)CN(C2CCN(C(=O)Nc3ccc(F)c(F)c3)CC2)C1 [Example 176, 4-{3-(cyanomethyl)-3-[4-(7H-pyrrolo[2,3-d]pyrimidin-4-yl)-1H-pyrazol-1-yl]azetidin-1-yl}-N-(3,4-difluorophenyl) piperidine-1-carboxamide]	5.1
